Common to all, as to format: cell-based
The subject of test [1] is HUT 78 leukemic cell line. Nature of the test: LDH release cytotoxicity assay, HUT 78. The settings on record: Homo sapiens, HuT78, 5×10^5 cells/mL, 10% fetal calf serum, incubation 2, 4, 8 and 24 hours, time of ID50 not given. How it is done:
(§1) The compounds of the present invention were tested for their cytotoxic effects upon various leukemic cell lines. The effectiveness of each of the compounds tested was measured through assessing the leakage of the cytosolic enzyme, lactic dehydrogenase (LDH), from the leukemia cells into the media following incubation with the compound.
(§2) The LDH release assay used was a modified microtiter plate enzyme linked immunosorbent assay LDH release assay. Seven mg of each phospholipid compound to be tested was completely dissolved in separate 700 μL volumes of 100% ethanol. The ethanolic solutions were then diluted to form stock solutions by the addition of 70 mL RPMI complete medium until the concentration of phospholipid in each solution was lowered to about 100 μg/mL. An RPMI complete medium contains a RPMI 1640 medium, without red phenol, 20 mM Hepes buffer, 2 mM L-glutamine, 50 μM 2-mercaptoethanol and 20% of fetal calf serum. To form an ethanol control, a 350 μL aliquot of ethanol was added to a small glass bottle containing 35 mL of RPMI complete medium.
(§3) Each stock solution was mixed by magnetic stirring bar at room temperature for one hour and then filtered through a 0.22 μm Millipore filter, where the filter was pre-rinsed with 0.6 mL of RPMI complete medium. The stock solutions were subsequently placed in a shaker in a cold room overnight and subsequently stored in small glass bottles wrapped with aluminum foil at 4° C.
(§4) Each stock solution was shaken for 30 minutes at room temperature. Then each phospholipid stock solution was separately diluted, in small glass vials, with RPMI complete medium to form solutions with phospholipid concentrations of 80 μg, 40 μg, 20 μg and 10 μg.
(§5) For each cell line, the leukemia cells were removed from the culture flask, put into a 50 mL conical tube, centrifuged at 500 rpm for 10 minutes and then washed once with fresh RPMI 1640 medium.
(§6) Aliquots (0.4 mL) of each 100 μg, 80 μg, 40 μg, 20 μg and 10 μg phospholipid solution were added to small vials containing 0.4 mL of cell suspension to form test solutions with phospholipid concentrations of 50, 40, 20, 10 and 5 μg/mL; cell densities of 5×10^5 cells/mL; and 10% fetal calf serum in RPMI complete medium. For an ethanol control group, an aliquot of 0.4 mL of the ethanol control was mixed with 0.4 mL of cell suspension to form a control group with an ethanol concentration of 0.495% and a cell density of 5×10^5 cells/mL. For a negative control group, a 0.4 mL aliquot of RPMI complete medium was added to 0.4 mL of cell suspension to give a cell density of 5×10^5 cells/mL. For a positive control group, cell suspension was diluted with RPMI 1640 medium, which contained 10% fetal calf serum, 20 mM Hepes buffer, 2 mM L-glutamine and 2-mercaptoethanol and stored overnight at -70° C.
(§7) Aliquots (0.2 mL) of each test solution and control group were added to flat bottomed Linbro microtiter plates, in triplicate, and incubated for 2, 4, 8 and 24 hours. Following incubation, the plates were centrifuged at 500 rpm for 5 minutes. Supernatant aliquots of 0.1 mL were then transferred to separate wells on an optic-clear, flat-bottomed microtiter plate. A volume of 0.1 mL of an LDH substrate mixture, containing 5.4×10^-2 M L(+)-lactate, 6.6×10^-4 MINT, provided by Sigma Chemical Company, 2.8×10^-4 M PMS, and 1.3×10^-3M NAD in a 0.2 M Tris buffer of pH 8.2, was added to each well. A Linbro-Titertek Company Lambda microtiter plate reader was used to monitor the absorbance at 490 nm.
(§8) The cytotoxic effectiveness of each compound tested, as provided in Table I, is described in terms of the ID50 of the drug. The ID50 is the concentration of the compound tested that is required to produce a cytotoxicity that is 50% of the control's cytotoxicity.

Test [2] relates to NAMALWA leukemic cell line. Nature of the test: LDH release cytotoxicity assay, NAMALWA. The settings on record: 5×10^5 cells/mL, 10% fetal calf serum, incubation 2, 4, 8 and 24 hours, time of ID50 not given. On the procedure:
as §1, §2, §3, §4, §5, §6, §7, §8

Test [3] relates to CEM leukemic cell line. The test is described as follows: LDH release cytotoxicity assay, CEM. The settings on record: 5×10^5 cells/mL, 10% fetal calf serum, incubation 2, 4, 8 and 24 hours, time of ID50 not given. How it is done:
as §1, §2, §3, §4, §5, §6, §7, §8

Test [4] relates to HL60 leukemic cell line. The test is described as follows: LDH release cytotoxicity assay, HL60. The settings on record: Homo sapiens, HL-60, 5×10^5 cells/mL, 10% fetal calf serum, incubation 2, 4, 8 and 24 hours, time of ID50 not given. How it is done: as §1, §2, §3, §4, §5
Aliquots (0.4 mL) of each 100 μg, 80 μg, 40 μg, 20 μg and 10 μg phospholipid solution were added to small vials containing 0.4 mL of cell suspension to form test solutions with phospholipid concentrations of 50, 40, 20, 10 and 5 μg/mL; cell densities of 5×10^5 cells/mL; and 10% fetal calf serum in RPMI complete medium. For an ethanol control group, an aliquot of 0.4 mL of the ethanol control was mixed with 0.4 mL of cell suspension to form a control group with an ethanol concentration of 0.495% and a cell density of 5×10^5 cells/mL. […]
Aliquots (0.2 mL) of each test solution and control group were added to flat bottomed Linbro microtiter plates, in triplicate, and incubated for 2, 4, 8 and 24 hours. […] A Linbro-Titertek Company Lambda microtiter plate reader was used to monitor the absorbance at 490 nm. […]

In brackets after ≈: the same amount, converted by molar mass.

`CCCCCCCCCCCCCCCCCCOCC(COP(=O)([O-])OCC[N+]1(C)CCCC1)OC` (stereo not drawn) [2-O-Methyl-1-O-octadecylglycero-3-phospho-(β-(N-methylpyrrolidino))ethanol]: the IC50 came out at 13 µg/mL (≈ 23.6 µM) in test [1], 17.5 µg/mL (≈ 31.8 µM) in test [2] and 3.4 µg/mL (≈ 6.18 µM) in test [3].
As to `CCCCCCCCCCCCCCCCCCOC[C@H](COP(=O)([O-])OC[C@H](C)[N+](C)(C)C)OC` [(2R,βS)-2-O-Methyl-1-O-octadecyl-sn-glycero-3-phospho-(β-methyl)choline], the IC50 in test [1] is 6.6 µg/mL (≈ 12.3 µM); in test [2], 12.8 µg/mL (≈ 23.8 µM); in test [3] it was 2.85 µg/mL (≈ 5.3 µM).
Regarding `CCCCCCCCCCCCCCCCC[C@@H]1CO[C@H](COP(=O)([O-])OCC[N+](C)(C)C)CO1` [(2S,5R)-(5-heptadecyl-1,4-dioxan-2-yl)methyloxyphosphocholine], the half-maximal inhibitory concentration (IC50) in test [4], in test [2] and in test [3] was 4 µg/mL (≈ 7.67 µM) each time.
In the case of `CCCCCCCCCCCCCCCCCCOC[C@H](COP(=O)([O-])O[C@@H](C)C[N+](C)(C)C)OC` [(2R,αS)-2-O-Methyl-1-O-octadecyl-sn-glycero-3-phospho-(α-methyl)choline], the 50% inhibitory concentration (IC50) was 15.2 µg/mL (≈ 28.3 µM) in test [1], 21.5 µg/mL (≈ 40 µM) in test [2] and 4.5 µg/mL (≈ 8.37 µM) in test [3].
For the compound `CCCCCCCCCCCCCCCCCCOC[C@H](COP(=O)([O-])OC[C@@H](C)[N+](C)(C)C)OC` [(2R,βR)-2-O-Methyl-1-O-octadecyl-sn-glycero-3-phospho-(β-methyl)choline], the 50% inhibitory concentration (IC50) came to 11.2 µg/mL (≈ 20.8 µM) in test [1], 13.5 µg/mL (≈ 25.1 µM) in test [2] and 3.3 µg/mL (≈ 6.14 µM) in test [3].
In the case of `CCCCCCCCCCCCCCCCCCOC[C@H](COP(=O)([O-])O[C@H](C)C[N+](C)(C)C)OC` [(2R,αR)-2-O-Methyl-1-O-octadecyl-sn-glycero-3-phospho-(α-methyl)choline], the half-inhibitory concentration (IC50) in test [1] was 21 µg/mL (≈ 39.1 µM); in test [2] it was 22 µg/mL (≈ 40.9 µM); in test [3], 5.6 µg/mL (≈ 10.4 µM).
Consider `CCCCCCCCCCCCCCCCCCOC[C@H](COP(=O)(O)O)OC` [(R)-2-O-Methyl-1-O-octadecyl-sn-glycero-3-phosphoric acid], for which the figures for the half-maximal inhibitory concentration (IC50) in test [1], in test [2] and in test [3] were 3 µg/mL (≈ 6.84 µM), 24 µg/mL (≈ 54.7 µM) and 2.95 µg/mL (≈ 6.73 µM), respectively.
Turning to `CCCCCCCCCCCCCCCCCCOCC(COP(=O)([O-])OCC[N+]1(C)CCOCC1)OC` (stereo not drawn) [2-O-Methyl-1-O-octadecylglycero-3-phospho-(β-(N-methylmorpholino))ethanol], the values for the IC50 in test [1], in test [2] and in test [3] were 6.6 µg/mL (≈ 11.7 µM), 11 µg/mL (≈ 19.4 µM) and 3.6 µg/mL (≈ 6.36 µM), respectively.
As for `CCCCCCCCCCCCCCCCC[C@H]1CO[C@@H](COP(=O)([O-])OCC[N+](C)(C)C)CO1` [(2R,5S)-(5-heptadecyl-1,4-dioxan-2-yl)methyloxyphosphocholine], the concentration for half-maximal inhibition (IC50) in test [4], in test [2] and in test [3] was < 2 µg/mL in each case.
As to `CCCCCCCCCCCCCCCCC[C@@H]1CO[C@@H](COP(=O)([O-])OCC[N+](C)(C)C)CO1` [(2R,5R)-(5-heptadecyl-1,4-dioxan-2-yl) methyloxyphosphocholine], the IC50 in test [4], in test [2] and in test [3] was 4 µg/mL (≈ 7.67 µM) throughout.
With `CCCCCCCCCCCCCCCCC[C@H]1CO[C@H](COP(=O)([O-])OCC[N+](C)(C)C)CO1` [(2S,5S)-(5-heptadecyl-1,4-dioxan-2-yl)methyloxyphosphocholine], the IC50 in test [4], in test [2] and in test [3] was < 2 µg/mL each time.
